Experimental data published in patent publication US20250205342A1, “IRAK DEGRADERS AND USES THEREOF” (Kymera Therapeutics, Inc., priority 2022, published 2025).

How the values were obtained:
IRAK4 [1] = molecular target: T1, IRAK4 (Homo sapiens, UniProt Q9NWZ3); test: IRAK4 degradation in OCI-LY10 (MSD, Meso Scale Discovery); format: cell-based; set-up: endogenous in cells; host or cells: OCI-LY10; conditions: OCI-LY10 cells, 24 h
T1 sequence (Q9NWZ3 1-460): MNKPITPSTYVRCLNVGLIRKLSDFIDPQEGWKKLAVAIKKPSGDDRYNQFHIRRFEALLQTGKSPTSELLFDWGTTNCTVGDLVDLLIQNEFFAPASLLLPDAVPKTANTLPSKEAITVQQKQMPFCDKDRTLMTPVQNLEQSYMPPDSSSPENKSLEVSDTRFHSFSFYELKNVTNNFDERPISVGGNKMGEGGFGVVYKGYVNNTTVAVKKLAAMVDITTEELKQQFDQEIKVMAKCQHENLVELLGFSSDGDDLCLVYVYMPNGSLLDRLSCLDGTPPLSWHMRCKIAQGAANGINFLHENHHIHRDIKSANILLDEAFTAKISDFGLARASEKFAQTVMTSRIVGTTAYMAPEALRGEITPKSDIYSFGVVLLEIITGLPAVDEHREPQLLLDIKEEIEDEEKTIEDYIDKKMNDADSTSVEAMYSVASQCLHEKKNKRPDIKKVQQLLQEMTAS
Method: Degradation of IRAK4 in OCI-LY10 was quantitatively measured using Meso Scale Discovery technology. OCI-LY10 cells were seeded in 96-well plates (Corning 3799) with a density of 300,000 cells per well in 100 μL fresh media. Compounds were then added to the assay plates with a final top concentration of 1 to 10 μM in a 1:3 dilution series with total of 8 doses. The assay plates were then incubated for 4 to 24 hours at 37° C. under 5% CO2. The assay plates were then centrifuged for 5 minutes and the cell pellets were treated with 100 μL/well RIPA lysis buffer (Boston BioProducts BP-115D) with proteinase inhibitors. To prepare MSD assay plates (Meso Scale Discovery Catalog number L15XA-3), the plates were coated with 2 ug/mL capture antibody (mouse Anti-IRAK4 antibody [2H9], ab119942) in PBS, at 40 μL/well. The plates were then incubated overnight at […], washed 3 times with 150 μL/well TBST buffer (Cell Signaling Technology, Catalog number 9997S) and blocked with 150 μL/well blocking buffer (Meso Scale Discovery Catalog number R^93BA-4). Cell lysates were then added to MSD assay plates and the plates were incubated at room temperature for 1 hour. The plates were then washed 3 times with 150 μL/well TBST buffer and 25 μL/well primary detection antibody (rabbit Anti-IRAK4 antibody [Y279], from Abcam. Catalog number ab32511, 1 μg/mL). The assay plates were then incubated at room temperature for 1 hour, washed 3 times with 150 μL/well TBST buffer and 25 μL/well secondary detection antibody, SULFO-TAG anti-rabbit antibody were added (anti-rabbit antibody from Meso Scale Discovery, Catalog number R^32AB-1, 1 μg/mL). The assay plates were then incubated at room temperature for 1 hour, washed 3 times with 150 μL/well TBST buffer, and 150 μL/well MSD reading buffer (Meso Scale Discovery catalog number R^92TC-2) was added. The plates were then analyzed by a MSD reader (Meso Scale Discovery, Model Quick Plex SQ 120). The data was then analyzed by software Prism 7.0 from GraphPad and the dose-depended IRAK4 degradation were fit using a three-parameter logistic equation to calculate DC50.
(§1) IRAK4 MSD degradation in OCI-LY10 results at 4 and 24 hrs and hPBMC at 20 hrs for compounds of the invention are presented in Table 3. The letter codes for IRAK4 DC50 include: A (<0.1 μM), B (0.1-1.0 μM), C(>1.0-10.0 μM), D (>10.0 μM or not determined).

IRAK4 [2] = molecular target: T1, IRAK4; test: hPBMC IRAK4 degradation flow assay (monocytes); format: cell-based; set-up: endogenous in cells; host or cells: human PBMCs (monocytes, CD14 positive gate); conditions: CD14 positive monocytes, 20 h, read-out: hPBMC monocyte DC50 at 20 h
Method: In the hPBMC IRAK4 degradation flow assay, frozen PBMCs were thawed into RPMI with 10% FBS and allowed to recover. On the same day as thawed, PBMCs were plated in 96 well plate, 90 μL per well. Compound plates were prepared and a 10 point, 5-fold dilution was performed with a final DMSO concentration of 0.1%. Compound 10 μL per well was added, sealed and incubated at 37° C., 5% CO2 for 20 hours (for 4 hour treatment, compounds were prepared and added the following day). Following the treatment incubation period (day 1), 1.6% PFA was added to PBMC plate and placed on plate shaker for 30 seconds and incubated for 10 mins at room temperature. Cells were spun down and washed two times with PBS/0.5% BSA, aspirated to pellet and placed into −80° C. freezer until further processing for flow. On the flow run day, PBMC plates were thawed and samples were transferred to PCR plates. The pre-perm staining cocktail (CD3 Ax488/CD8 BUV805/CD14 BUV395/CD16/56 BV711/CD19 BV785) was added to samples and incubated for 30 minutes at room temperature. Samples were washed two times and permeabilized with methanol for 10 minutes at 4° C. Samples were washed two times and the post-perm staining cocktail (CD4 PE/IRAK4 Ax647 BD #560315) was added and incubated for 30 minutes at room temperature. Samples were washed two times with PBS/BSA and run on a BD LSRFortessa. Mononuclear cells are gated by SSCH/FSCH and single cells. Monocytes are then gated through CD14 positive gate and lymphocytes are gated through CD14 negative gate. To determine absolute DC50 and max degradation values, MFI values were normalized to DMSO max and 20 hour 10 µM min control. Twenty hour dose curves were calculated using a 4 parameter logistic regression curve fit, no constraints (Top doses were removed if hook effects were observed and the bottom was constrained to 0).
as §1

| SMILES | DC50 (IRAK4 [1]) [µM] | DC50 (IRAK4 [2]) [µM] |
| --- | --- | --- |
| COc1cc2nn([C@H]3CC[C@H](CNCCOCCOCCNc4cncc(N5CCC[C@H](C(=O)Nc6ccc(=O)n(CC(=O)O)c6)C5)c4)CC3)cc2cc1NC(=O)c1cccc(C(F)(F)F)n1 [Compound I-1] | > 10 | 1 to 10 |
| O=C(O)Cn1cc(NC(=O)[C@H]2CCCN(c3cncc(NCCOCCOCCNC[C@H]4CC[C@H](n5cc(NC(=O)c6cnn7ccc(N8C[C@H]9C[C@@H]8CO9)nc67)c(C(F)F)n5)CC4)c3)C2)ccc1=O [Compound I-2] | > 10 | > 10 |
| COc1cc2nn([C@H]3CC[C@H](CNCCOCCOCCOCCOCCNc4cncc(N5CCC[C@H](C(=O)Nc6ccc(=O)n(CC(=O)O)c6)C5)c4)CC3)cc2cc1NC(=O)c1cccc(C(F)(F)F)n1 [Compound I-3] | > 10 | > 10 |
| O=C(O)Cn1cc(NC(=O)[C@H]2CCCN(c3cncc(NCCOCCOCCOCCOCCNC[C@H]4CC[C@H](n5cc(NC(=O)c6cnn7ccc(N8C[C@H]9C[C@@H]8CO9)nc67)c(C(F)F)n5)CC4)c3)C2)ccc1=O [Compound I-4] | > 10 | > 10 |
| CCOC(=O)Cn1cc(NC(=O)[C@H]2CCCN(c3cncc(NCCOCCOCCNC[C@H]4CC[C@H](n5cc6cc(NC(=O)c7cccc(C(F)(F)F)n7)c(OC)cc6n5)CC4)c3)C2)ccc1=O [Compound I-5] | > 10 | 1 to 10 |
| CCOC(=O)Cn1cc(NC(=O)[C@H]2CCCN(c3cncc(NCCOCCOCCOCCOCCNC[C@H]4CC[C@H](n5cc(NC(=O)c6cnn7ccc(N8C[C@H]9C[C@@H]8CO9)nc67)c(C(F)F)n5)CC4)c3)C2)ccc1=O [Compound I-6] | > 10 | > 10 |
| COc1cc2nn([C@H]3CC[C@H](CNCCNc4cncc(N5CCC[C@H](C(=O)Nc6ccc(=O)n(CC(=O)O)c6)C5)c4)CC3)cc2cc1NC(=O)c1cccc(C(F)(F)F)n1 [Compound I-7] | > 10 | > 10 |
| O=C(O)Cn1cc(NC(=O)[C@H]2CCCN(c3cncc(NCCNC[C@H]4CC[C@H](n5cc(NC(=O)c6cnn7ccc(N8C[C@H]9C[C@@H]8CO9)nc67)c(C(F)F)n5)CC4)c3)C2)ccc1=O [Compound I-8] | > 10 | > 10 |
| COc1cc2nn([C@H]3CC[C@H](CN4CCC(OCC#Cc5cncc(N6CCC[C@H](C(=O)Nc7ccc(=O)n(CC(=O)O)c7)C6)c5)CC4)CC3)cc2cc1NC(=O)c1cccc(C(F)(F)F)n1 [Compound I-9] | > 10 | 0.1 to 1 |
| COc1cc2nn([C@H]3CC[C@H](CN4CCC(c5cncc(N6CCC[C@H](C(=O)Nc7ccc(=O)n(CC(=O)O)c7)C6)c5)CC4)CC3)cc2cc1NC(=O)c1cccc(C(F)(F)F)n1 [Compound I-10] | > 10 | > 10 |
| O=C(O)Cn1cc(NC(=O)[C@H]2CCCN(c3cncc(C#CCOC4CCN(C[C@H]5CC[C@H](n6cc(NC(=O)c7cnn8ccc(N9C[C@H]%10C[C@@H]9CO%10)nc78)c(C(F)F)n6)CC5)CC4)c3)C2)ccc1=O [Compound I-11] | > 10 | > 10 |
| O=C(O)Cn1cc(NC(=O)[C@H]2CCCN(c3cncc(C4CCN(C[C@H]5CC[C@H](n6cc(NC(=O)c7cnn8ccc(N9C[C@H]%10C[C@@H]9CO%10)nc78)c(C(F)F)n6)CC5)CC4)c3)C2)ccc1=O [Compound I-12] | > 10 | > 10 |
| CCOC(=O)Cn1cc(NC(=O)[C@H]2CCCN(c3cncc(NCCOCCOCCOCCOCCNC[C@H]4CC[C@H](n5cc6cc(NC(=O)c7cccc(C(F)(F)F)n7)c(OC)cc6n5)CC4)c3)C2)ccc1=O [Compound I-13] | > 10 | 1 to 10 |
| CCOC(=O)Cn1cc(NC(=O)[C@H]2CCCN(c3cncc(NCCNC[C@H]4CC[C@H](n5cc6cc(NC(=O)c7cccc(C(F)(F)F)n7)c(OC)cc6n5)CC4)c3)C2)ccc1=O [Compound I-14] | > 10 | > 10 |
| CCOC(=O)Cn1cc(NC(=O)[C@H]2CCCN(c3cncc(NCCOCCOCCNC[C@H]4CC[C@H](n5cc(NC(=O)c6cnn7ccc(N8C[C@H]9C[C@@H]8CO9)nc67)c(C(F)F)n5)CC4)c3)C2)ccc1=O [Compound I-15] | > 10 | > 10 |
| CCOC(=O)Cn1cc(NC(=O)[C@H]2CCCN(c3cncc(NCCNC[C@H]4CC[C@H](n5cc(NC(=O)c6cnn7ccc(N8C[C@H]9C[C@@H]8CO9)nc67)c(C(F)F)n5)CC4)c3)C2)ccc1=O [Compound I-16] | > 10 | > 10 |
| CCOC(=O)Cn1cc(NC(=O)[C@H]2CCCN(c3cncc(C4CCN(C[C@H]5CC[C@H](n6cc7cc(NC(=O)c8cccc(C(F)(F)F)n8)c(OC)cc7n6)CC5)CC4)c3)C2)ccc1=O [Compound I-17] | > 10 | 1 to 10 |
| CCOC(=O)Cn1cc(NC(=O)[C@H]2CCCN(c3cncc(C4CCN(C[C@H]5CC[C@H](n6cc(NC(=O)c7cnn8ccc(N9C[C@H]%10C[C@@H]9CO%10)nc78)c(C(F)F)n6)CC5)CC4)c3)C2)ccc1=O [Compound I-18] | > 10 | 1 to 10 |
| COc1cc2nn([C@H]3CC[C@H](CN(C)CC4CCN(c5cncc(N6CCCC(C(=O)Nc7ccc(=O)n(CC(=O)O)c7)C6)c5)CC4)CC3)cc2cc1NC(=O)c1cccc(C(F)(F)F)n1 (stereo partly shown) [Compound I-19] | > 10 | > 10 |
| CCOC(=O)Cn1cc(NC(=O)C2CCCN(c3cncc(N4CCC(CN(C)C[C@H]5CC[C@H](n6cc7cc(NC(=O)c8cccc(C(F)(F)F)n8)c(OC)cc7n6)CC5)CC4)c3)C2)ccc1=O (stereo partly shown) [Compound I-20] | > 10 | > 10 |
| O=C(O)Cn1cc(NC(=O)[C@H]2CCCN(c3cncc(CCCCNC[C@H]4CC[C@H](n5cc(NC(=O)c6cnn7ccc(N8C[C@H]9C[C@@H]8CO9)nc67)c(C(F)F)n5)CC4)c3)C2)ccc1=O [Compound I-21] | > 10 | 1 to 10 |
| CCOC(=O)Cn1cc(NC(=O)[C@H]2CCCN(c3cncc(C#CCOC4CCN(C[C@H]5CC[C@H](n6cc7cc(NC(=O)c8cccc(C(F)(F)F)n8)c(OC)cc7n6)CC5)CC4)c3)C2)ccc1=O [Compound I-22] | > 10 | < 0.1 |
| CCOC(=O)Cn1cc(NC(=O)[C@H]2CCCN(c3cncc(C#CCOC4CCN(C[C@H]5CC[C@H](n6cc(NC(=O)c7cnn8ccc(N9C[C@H]%10C[C@@H]9CO%10)nc78)c(C(F)F)n6)CC5)CC4)c3)C2)ccc1=O [Compound I-23] | > 10 | 1 to 10 |
